# Test results: patent publication EP4763838A1, “COMPOUND AND USE THEREOF” (Ocean University of China, priority 2023, dated 2025)
# “And” between values parts separate entries of the source, which are not always exact repeats. Equal values may be shown once. Where a name gives a salt, the structure may show the parent alone.
# Molecular target: T1, E3 ubiquitin ligase CRBN (Homo sapiens, UniProt Q96SW2)
# T1 construct: purchased PE (PerkinElmer) 64BDCRBNPEG
# Test: Binding activity to E3 ubiquitin ligase CRBN (HTRF competitive binding with XL665-labeled thalidomide, Cereblon binding kit)
# Details: competition with XL665-labeled thalidomide for GST-labelled CRBN protein, 3 h at room temperature
# Procedure: The binding activity of the compound disclosed in the present patent to the E3 ubiquitin ligase CRBN was determined by competitive binding of the disclosed compound with XL665-labeled thalidomide to the CRBN protein, thereby preventing the occurrence of fluorescence resonance energy transfer (FRET). Accordingly, the binding affinity of the compound to the CRBN protein was determined.
# CRBN binding activity test kit (CEREBLON BINDING KITS (PE, 64BDCRBNPEG)).
# The assay was based on a homogeneous time-resolved fluorescence (HTRF) technology. When a donor and an acceptor were in close proximity, the donor transferred energy to the acceptor so that the acceptor was excited to emit an emission light 665 nm.
# The donor used in the kit of the present disclosure was a europium-labeled GST antibody (GST Eu Cryptate Antibody), and the acceptor was thalidomide labeled with XL665 (Thalidomide-Red reagent). The donor bound to the CRBN protein comprising a GST label. The compound disclosed in the present patent competitively bound to the CRBN protein with thalidomide. The binding activity of the compound was determined according to the fluorescence value emitted by the acceptor at 665 nm. The stronger binding force of the compound indicated the weaker signal.
# The donor and the acceptor were diluted 50-fold respectively by using a kit buffer (PROTAC binding buffer 1). The CRBN protein was diluted 45-fold. The 8 mM solution of the compound disclosed in the present patent was diluted 10-fold with 1X diluent from the kit, followed by 5-fold serial dilutions for a total of 7 consecutive dilutions.
# 5 µl of compound, 5 µl of diluted CRBN protein and 10 µl of donor-acceptor isovolumetric mixture were sequentially added to each well of a white 384-well plate (PE, Part number:6008280). The above system was incubated for 3 h at room temperature.
# A ratio of acceptor to donor emission signals for each individual well was calculated. Ratio = signal value at 665 nm/signal value at 620 nm * 10^4 Coefficient of variation (CV) = standard deviation (SD)/average Ratio × 100 [formula]
# The IC50 value was calculated based on the compound concentration, Ratio and the coefficient of variation by using GraphPad Prism. Table 10 Binding activity of compounds 1-18 to E3 ubiquitin ligase CRBN
row,Structure (SMILES),IC50 [µM]
1,"COc1nnc(C2CCC(=O)NC2=O)cc1N1CCNCC1 (stereo not drawn) [Compound 41, 3-(6-methoxy-5-(piperazin-1-yl)pyridazin-3-yl)piper idine-2,6-dione hydrochloride salt]",50
2,"[2H]C1(c2ccc(N3CCNCC3)nn2)CCC(=O)NC1=O (stereo not drawn) [Compound 39, 3-(6-(piperazin-1-yl)pyridazin-3-yl)piperidine-2,6-dione-3-dhydrochloride salt]",50
3,"O=C1CCC(c2cc(F)c(N3CCNCC3)nn2)C(=O)N1 (stereo not drawn) [Compound 25, 3-(5-fluoro-6-(piperazin-1-yl)pyridazin-3-yl)piperidine-2,6-dione hydrochloride salt]",50
4,"CN1C(=O)CCC(c2ccc(N3CCNCC3)nn2)C1=O (stereo not drawn) [Compound 43, 1-methyl-3-(6-(piperazin-1-yl)pyridazin-3-yl)piperidine-2,6-dione hydrochloride salt]",> 100
5,"O=C1CCC(c2nnc(N3CCNCC3)cc2F)C(=O)N1 (stereo not drawn) [Compound 13, 3-(4-fluoro-6-(piperazin-1-yl)pyridazin-3-yl)piperidine-2,6-dione hydrochloride salt]",50
6,"O=C1CCC(c2ccc(N3CCC[C@@H]3CO)nn2)C(=O)N1 (stereo partly drawn) [Compound 5, 3-(6-((R)-2-(hydroxymethyl)pyrrolidin-1-yl)pyridazin-3-yl)piperidine-2,6-dione]",50
7,"O=C1CCC(c2nnc(N3CCNCC3)cc2C(F)(F)F)C(=O)N1 (stereo not drawn) [Compound 15, 3-(6-(piperazin-1-yl)-4-(trifluoromethyl)pyridazin-3-yl)piperidine-2,6-dione hydrochloride salt]",50
8,"O=C1CCC(c2nnc(N3CCNCC3)cc2-c2ccncc2)C(=O)N1 (stereo not drawn) [Compound 20, 3-(6-(piperazin-1-yl)-4-(pyridin-4-yl)pyridazin-3-yl)pi peridine-2,6-dione hydrochloride salt]",> 100
9,"CCc1cc(C2CCC(=O)NC2=O)nnc1N1CCNCC1 (stereo not drawn) [Compound 22, 3-(5-ethyl-6-(piperazin-1-yl)pyridazin-3-yl)piperidine-2,6-dione hydrochloride salt]",> 50
10,"N#Cc1cc(C2CCC(=O)NC2=O)nnc1N1CCNCC1 (stereo not drawn) [Compound 26, 6-(2,6-dioxopiperidin-3-yl) -3-(piperazin-1-yl)pyridazine-4-carbonitrile hydrochloride salt]",50
11,"CN(C)c1nnc(C2CCC(=O)NC2=O)cc1N1CCNCC1 (stereo not drawn) [Compound 42, 3-(6-(dimethylamino)-5-(piperazin-1-yl)pyridazin-3-yl)piperidine-2,6-dione hydrochloride salt]",50
12,"Cc1cc(N2CCNCC2)nnc1C1CCC(=O)NC1=O (stereo not drawn) [Compound 9, 3-(4-methyl-6-(piperazin-1-yl)pyridazin-3-yl)piperidine-2,6-dione hydrochloride salt]",50
13,"Cc1c(C2CCC(=O)NC2=O)nnc(N2CCNCC2)c1C (stereo not drawn) [Compound 33, 3-(4,5-dimethyl-6-(piperazin-1-yl)pyridazin-3-yl)pip eridine-2,6-dione hydrochloride salt]",50
14,"Nc1cc(N2CCNCC2)nnc1C1CCC(=O)NC1=O (stereo not drawn) [Compound 17, 3-(4-amino-6-(piperazin-1-yl)pyridazin-3-yl)piperidine-2,6-dione hydrochloride salt]",50
15,"O=C1CCC(c2ccc(N3CCNCC3)nn2)C(=O)N1 (stereo not drawn) [Compound 7, 3-(6-(piperazin-1-yl)pyridazin-3-yl)piperidine-2,6-dione hydrochloride salt]",50
16,"Nc1cc(C2CCC(=O)NC2=O)nnc1N1CCNCC1 (stereo not drawn) [Compound 29, 3-(5-amino-6-(piperazin-1-yl)pyridazin-3-yl)piperidine-2,6-dione hydrochloride salt]",50
17,"O=C1CCC(F)(c2ccc(N3CCNCC3)nn2)C(=O)N1 (stereo not drawn) [Compound 38, 3-fluoro-3-(6-(piperazin-1-yl)pyridazin-3-yl)piperidine-2,6-dione hydrochloride salt]",50
18,"O=C1CCC(c2cc(C(F)(F)F)c(N3CCNCC3)nn2)C(=O)N1 (stereo not drawn) [Compound 27, 3-(6-(piperazin-1-yl)-5-(trifluoromethyl)pyridazin-3-yl)piperidine-2,6-dione hydrochloride salt]",50
19,"O=C1CCN(c2ccc(N3CCNCC3)nn2)C(=O)N1 [Compound 40, 1-(6-(piperazin-1-yl)pyridazin-3-yl)dihydropyrimidine-2,4(1H,3H)-dione hydrochloride salt]",50
20,"O=C1CCC(c2ccc(N3CCC[C@H]3CO)nn2)C(=O)N1 (stereo partly drawn) [Compound 6, 3-(6-((S)-2-(hydroxymethyl)pyrrolidin-1-yl)pyridazin-3-yl)piperidine-2,6-dione]",50
21,"COc1ccc(C2CCC(=O)NC2=O)nn1 (stereo not drawn) [Compound 8, 3-(6-methoxypyridazin-3-yl) piperidine-2,6-dione]",50
22,"COc1cc(N2CCNCC2)nnc1C1CCC(=O)NC1=O (stereo not drawn) [Compound 16, 3-(4-methoxy-6-(piperazin-1-yl)pyridazin-3-yl)piper idine-2,6-dione hydrochloride salt]",50
23,"O=C1CCC(c2cc(C3CC3)c(N3CCNCC3)nn2)C(=O)N1 (stereo not drawn) [Compound 24, 3-(5-cyclopropyl-6-(piperazin-1-yl)pyridazin-3-yl)pip eridine-2,6-dione hydrochloride salt]",> 50
24,"N#Cc1cc(N2CCNCC2)nnc1C1CCC(=O)NC1=O (stereo not drawn) [Compound 14, 3-(2,6-dioxopiperidin-3-yl) -6-(piperazin-1-yl)pyridazine-4-carbonitrile hydrochloride salt]",50
25,"O=C1CCC(c2nnc(N3CCNCC3)cc2-c2ccccc2)C(=O)N1 (stereo not drawn) [Compound 19, 3-(4-phenyl-6-(piperazin-1-yl)pyridazin-3-yl)piperidine-2,6-dione hydrochloride salt]",> 100
26,"COc1cc(C2CCC(=O)NC2=O)nnc1N1CCNCC1 (stereo not drawn) [Compound 28, 3-(5-methoxy-6-(piperazin-1-yl)pyridazin-3-yl)piper idine-2,6-dione hydrochloride salt]",50
27,"CC(C)c1cc(C2CCC(=O)NC2=O)nnc1N1CCNCC1 (stereo not drawn) [Compound 23, 3-(5-isopropyl-6-(piperazin-1-yl)pyridazin-3-yl)piper idine-2,6-dione hydrochloride salt]",100
28,"Cc1cc(C2CCC(=O)NC2=O)nnc1N1CCNCC1 (stereo not drawn) [Compound 21, 3-(5-methyl-6-(piperazin-1-yl)pyridazin-3-yl)piperidine-2,6-dione hydrochloride salt]",50

# Same assay, conditions: competition with XL665-labeled thalidomide for GST-labelled CRBN protein, 3 h at room temperature, read-out: IC50
row,Structure (SMILES),IC50
1,"CN(C)Cc1cc(C2CCC(=O)NC2=O)nnc1N1CCNCC1 (stereo not drawn) [Compound 30, 3-(5-((dimethylamino)methyl)-6-(piperazin-1-yl)pyridazin-3-yl)piperidine-2,6-dione bis-hydrochloride salt]",> 50 µM and 100 µM
2,"CN(C)Cc1cc(N2CCNCC2)nnc1C1CCC(=O)NC1=O (stereo not drawn) [Compound 18, 3-(4-((dimethylamino)methyl)-6-(piperazin-1-yl)pyridazin-3-yl)piperidine-2,6-dionebis hydrochloride salt]",> 50 µM and 100 µM
